For one data set, the system named is UGT enzymes. The experiment in a line: UGT activity in human liver S9. The conditions noted are these: 1 mM, human liver S9 2.0 mg/mL, UDPGA 8 mM. As for the experimental part:
(§1) Reaction mixtures containing phosphate buffer (100 mM, pH 7.4), mixed pooled gender human liver S9 (2.0 mg/mL), MgCl2 (10 mM), UDPGA (8 mM), and D-saccharic acid-1,4-lactone (2 mM) were pre-incubated at 37° C. for 5 minutes. The reactions were then initiated by the addition of emtricitabine or compound 13 (1 mM). After incubation at 37° C., aliquots were taken at each time point and quenched in two volumes of ice-cold methanol. The quenched aliquots were then centrifuged at 14000 rpm for 4 minutes. The supernatant was then diluted into phosphate buffer (100 mM, pH 7.4) to yield samples with concentrations suitable for analysis. The samples were analyzed by HPLC with UV detection using the following method (0% to 100% acetonitrile in Et3NHOAc (50 mM, pH 8) gradient) over 10 minutes at a flow rate of 3 mL min^−1, held at 100% acetonitrile for 3 minutes, ramped down to 5% acetonitrile over 0.2 minutes and then held for 2.8 minutes.

Another data set relates to CD4+ T cells. The experiment in a line: Viability staining (Zombie Red) in single-round infectivity assay. As for the experimental part: Peripheral blood mononuclear cells were isolated from healthy blood donors using Hypaque-Ficoll gradient centrifugation. CD4+ T cells were selected by magnetic beads (Miltenyi) and activated using anti-CD3 and anti-CD28 antibodies. Activated cells were seeded onto a 96-well plate at a concentration of 1×10^5 cells/well in RPMI1640 supplemented with 10% FBS, cytokine-rich supernatant, and 50% heat-inactivated human serum. Test compounds were added at this step and maintained throughout the culture. Cells were incubated at 37° C. for 21 hours. Pseudotype (GFP-tagged) HIV was then added to the culture via spinoculation and incubated for 3 days. Cells were then washed and stained with Zombie Red viability stain. Infectivity was quantified using flow cytometry.

The next data set relates to CYP enzymes. The experiment in a line: Cytochrome P450 activity in human liver microsomes. As to conditions: 1 mM, 2.0 mg/mL pooled mixed gender human liver microsomes. As for the experimental part:
as §1, with “liver microsomes” for “liver S9”, “mg/mL), NADP+ (1” for “mg/mL), MgCl2 (10”, “mM), glucose-6-phosphate (5” for “mM), UDPGA (8”, “and glucose-6-phosphate dehydrogenase (1.5 Unit/mL)” for “and D-saccharic acid-1,4-lactone (2 mM)”, “initiated via” for “initiated by”
(In general: Liver microsomes are vesicles of endoplasmic reticulum, rich in cytochrome P450 enzymes.)

Data set [1] is described as follows: Stability in single-round infectivity assay well media. The conditions noted are these: RPMI1640, 10% FBS, 50% heat-inactivated human serum, 37° C. Type of data set: in vitro ADME. As for the experimental part:
Well media used in the single-round infectivity assays as described above, comprised of RPMI1640 medium supplemented with 10% FBS, cytokine-rich supernatant, 50% heat-inactivated human serum and HEPES buffer (12 mM). The emtricitabine test compounds were incubated in well media at 37° C. At various time points, aliquots were quenched in two volumes of ice-cold methanol. Quenched mixtures were then centrifuged at 14000 rpm for 5 minutes. The supernatant was diluted 10-fold into Tris buffer (30 mM, pH 7.4) and then analyzed via HPLC coupled with UV detection.
Stability studies indicate that both compounds 16 and 25 were hydrolyzed to the parent emtricitabine in a time-frame matching the time of pre-incubation in single-round infectivity assays. This is likely due to the presence of heat-inactivated serum still containing active esterases.

Data set [2] is described as follows: Prodrug hydrolysis in mouse plasma. Type of data set: in vitro ADME. The conditions noted are these: 1 mM, compared with human plasma. As for the experimental part: (§2) Reaction mixtures containing either mouse liver S9 (20.8 mg/mL), mouse plasma, rat liver S9 (1 mg/mL) and phosphate buffer (100 mM, pH 7.4), rat plasma, human liver S9 (1.0 mg/mL) and phosphate buffer (100 mM, pH 7.4) or human plasma were pre-incubated at 37° C. for 5 minutes. Reactions were then initiated by addition of compounds 4, 8 or 16 (1 mM in mouse, 0.5 mM in rat and human). After incubation at 37° C., aliquots are taken at each time point and quenched in two volumes of ice-cold methanol. The quenched aliquots were then centrifuged at 14000 rpm for 5 minutes. The supernatant was then diluted into phosphate buffer (30 mM, pH 7.4) to yield samples with concentrations suitable for analysis.

Data set [3] is described as follows: Prodrug hydrolysis in mouse liver S9. Type of data set: in vitro ADME. As to conditions: 1 mM, compared with human liver S9. As for the experimental part:
as §2

The nature of data set [4]: Kinetic analysis of trimethyl lock prodrug in mouse liver S9 via UV. Type of data set: in vitro ADME. The conditions noted are these: mouse liver S9 1.0 mg/mL. As for the experimental part:
The reaction is then initiated by the addition of emtricitabine trimethyl lock compound 25 (concentration of compound 25 ranging from 600 μM to 6 mM). […] The supernatant was diluted into Tris buffer (30 mM, pH 7.4) to yield concentrations appropriate for analysis and read spectrophotometrically monitoring a decrease in substrate at 312 nm.

Data set [5] in a line: Half-life measurements in human skeletal muscle S9. The data set is classed as in vitro ADME. The conditions noted are these: Human muscle S9 (7.96 mg/mL), 37° C. As for the experimental part: (§3) To evaluate the hydrolysis rates of emtricitabine compounds 9-16, HPLC coupled with UV detection was used with the following method (0% to 100% acetonitrile in Et3NHOAc (50 mM, pH 8) gradient) over 10 minutes at a flow rate of 3 mL min^−1, held at 100% acetonitrile for 3 minutes, ramped down to 5% acetonitrile over 0.2 minutes and then held for 2.8 minutes. Male human plasma (Bioreclamation) or female human skeletal muscle S9 (7.96 mg/mL, Bioreclamation) was pre-incubated at 37° C. for 5 minutes. Compounds 9-16 (1 mM) were added and the reaction was incubated at 37° C. […] The supernatant was diluted 10 fold into Tris buffer (30 mM, pH 7.4) and injected onto the HPLC for analysis.
(§4) To evaluate the hydrolysis rates of emtricitabine trimethyl lock prodrugs, HPLC coupled with UV detection was used with the following method (0% to 100% acetonitrile in Et3NHOAc (50 mM, pH 8) gradient) over 10 minutes at a flow rate of 3 mL min^−1, held at 100% acetonitrile for 3 minutes, ramped down to 5% acetonitrile over 0.2 minutes and then held for 2.8 minutes. Human plasma (Bioreclamation) or human skeletal muscle S9 (7.96 mg/mL, Bioreclamation) was pre-incubated at 37° C. for 5 minutes. Emtricitabine trimethyl lock compound 25 (1 mM) was added and the reaction was incubated at 37° C. […] The supernatant was diluted in Tris buffer (100 mM, pH 7.4) and injected onto the HPLC for analysis.

A short description of data set [6]: Half-life measurements in human plasma (HPLC-UV). Type of data set: in vitro ADME. As to conditions: Human plasma, 37° C., read-out: Half-Life (converted). As for the experimental part:
as §3
as §4, with “analysis. […]” for “analysis.”

Data set [7] in a line: Kinetic analysis via UV in mixed pooled gender liver S9 (10.0 mg/mL). Type of data set: in vitro ADME, human. As for the experimental part:
Reaction mixtures containing Tris buffer (30 mM, pH 7.4) and mixed pooled gender liver S9 (10.0 mg/mL) were pre-incubated at 37° C. for 5 min. […] After incubation at 37° C., aliquots were taken at each time point and quenched in two volumes of ice-cold methanol. The quenched aliquots were then centrifuged at 14000 rpm for 5 minutes. The supernatant was diluted into Tris buffer (30 mM, pH 7.4) to yield concentrations appropriate for analysis and read spectrophotometrically monitoring a decrease in substrate at 305 nm.
A reaction mixture containing Tris buffer (30 mM, pH 7.4) and mixed pooled gender liver S9 (10.0 mg/mL) was pre-incubated at 37° C. for 5 minutes. The reaction was then initiated by the addition of emtricitabine trimethyl lock compound 25 (concentration of compound 25 ranging from 100 μM to 8 mM). After incubation at 37° C., aliquots were taken at each time point and quenched in two volumes of ice-cold methanol. The quenched aliquots were then centrifuged at 14000 rpm for 5 minutes. The supernatant was diluted into Tris buffer (30 mM, pH 7.4) to yield samples having concentrations appropriate for analysis and read spectrophotometrically monitoring a decrease in substrate at 312 nm.

The nature of data set [8]: Half-life of emtricitabine amidine prodrug in phosphate buffer. The data set is classed as physicochemical. The conditions noted are these: Phosphate Buffer (100 mM, pH 7.4), 37° C. As for the experimental part:
(§5) To evaluate the hydrolysis rates of emtricitabine amidine prodrugs, HPLC coupled with UV detection was used with the following method (0% to 100% acetonitrile in Et3NHOAc (50 mM, pH 8) gradient) over 10 minutes at a flow rate of 3 mL min^−1, held at 100% acetonitrile for 3 minutes, ramped down to 5% acetonitrile over 0.2 minutes and then held for 2.8 minutes. Normal human serum (Bioreclamation) or phosphate buffer (100 mM, pH 7.4) was pre-incubated at 37° C. for 5 minutes. Emtricitabine amidine compound 23 (1 mM) was then added and the reaction mixture was incubated at 37° C. […] The supernatant was injected onto a HPLC system for analysis, the resulting data can be seen illustrated in FIG. 13.

Data set [9] in a line: Half-life of emtricitabine amidine prodrug in human serum. The data set is classed as in vitro ADME. The conditions noted are these: normal human serum, 37° C. As for the experimental part: as §5

A word on the half-life: it is how long it takes for the measured level to halve. What is called Km is the substrate concentration at which the rate is half of its maximum. Broadly, the Vmax is the top rate of the reaction or transport when substrate is in excess.

Take `Nc1nc(=O)n([C@@H]2CS[C@H](CO)O2)cc1F` [Emtricitabine, emtricitabine]: the “metabolism by UGT enzymes” value in the data set with UGT enzymes was “not metabolized”. Moreover, the “toxicity on CD4+ T cells (viability staining)” value (“toxicity on CD4+ T cells” below) with CD4+ T cells is given as “little to no toxicity”. In addition, the “metabolism by CYP enzymes” value in the data set with CYP enzymes is recorded as “not metabolized”.

`CCCCCCCCOC(=O)Nc1nc(=O)n([C@@H]2CS[C@H](CO)O2)cc1F` [Compound 16, octyl (5-fluoro-1-((2R,5S)-2-(hydroxymethyl)-1,3-oxathiolan-5-yl)-2-oxo-1,2-dihydropyrimidin-4-yl)carbamate] gave a half-life in data set [1] of 18 h. Moreover, the “toxicity on CD4+ T cells” value in the data set on CD4+ T cells is recorded as “little to no toxicity”. Also, in [2], the “hydrolysis rate in mouse plasma” value is “dramatically enhanced relative to human plasma”. For the same compound, the “hydrolysis rate in mouse liver S9” value in data set [3] is “comparable in mouse and human liver S9”.

Turning to `CC(=O)Oc1cc(C)cc(C)c1C(C)(C)CC(=O)Nc1nc(=O)n([C@@H]2CS[C@H](CO)O2)cc1F` [Compound 25, 2-(4-((5-fluoro-1-((2R,5S)-2-(hydroxymethyl)-1,3-oxathiolan-5-yl)-2-oxo-1,2-dihydropyrimidin-4-yl)amino)-2-methyl-4-oxobutan-2-yl)-3,5-dimethylphenyl acetate], the half-life in data set [1] is 0.83 h. Besides, the Km was found to be 1600 µM in data set [4] (both sexes, pooled mouse liver S9, pH 7.4, 600 μM to 6 mM) and 2400 µM in [7] (both sexes, human, pooled liver S9, pH 7.4, 100 μM to 8 mM, 312 nm). For the same compound, the figures for the “Intrinsic Clearance” value in [4] and in [7] were 138.3 µL/min/mg and 11.5 µL/min/mg, respectively. The Vmax in data set [4] worked out at 13200 nmol/h/mg; in data set [7] it was 1659 nmol/h/mg. Also, the half-life at 1 mM in data set [5] is 1 h; in data set [6], 0.4 h. Moreover, the “toxicity on CD4+ T cells” value with CD4+ T cells is “little to no toxicity”.

On to `CN(C)/C=N\c1nc(=O)n([C@@H]2CS[C@H](CO)O2)cc1F` [Compound 23, (Z)—N′-(5-fluoro-1-((2R,5S)-2-(hydroxymethyl)-1,3-oxathiolan-5-yl)-2-oxo-1,2-dihydropyrimidin-4-yl)-N,N-dimethylformimidamide], for which the figures for the half-life at 1 mM in [8] and in data set [9] were 95 h and 5.8 h, respectively.
